According to patent US9862748B2, “Peptide compounds and methods of production and use thereof” (priority 2012, dated 2018):
Square brackets hold non-standard residues; d marks the D form. Ends that are not written are not given here. Peptide text beside a SMILES is read from it. AEEA = NCCOCCOCC(=O)O

Assays:
[1] = test system: swine skin wounds; experiment: Swine full thickness excisional dermal wound model, wound area; format: in vivo
Method: In this Example, peptide compounds of the presently disclosed and claimed inventive concept(s) were evaluated as to their activity on the dermal wound healing process in a clinically relevant swine full thickness excisional wound model. Three different peptide formulations (Group B, Peptide 95-122 (SEQ ID NO: 26); Group C, Peptide 120-146WH (SEQ ID NO: 31); and Group D, Peptide 120-146QH-5RMP (SEQ ID NO: 33)) were each evaluated at the same concentration (3 mg/ml). Sterile saline served as the control (Group A).
(§1) Full thickness excisional wounds were induced on the dorsum of swine (N=3) using a 1.0 cm biopsy punch. Treatments were administered (0.20 ml) to each wound (N=6 wounds per group), and the wounds were dressed with standard occlusive dressing ([…]™, 3M Corporation, St. Paul, Minn.). Treatments were reapplied daily and dressings changed. Clinical wound healing observations and wound area (2 mm) measurements were performed on days 0, 3, 5, 7, 10, and 14 post-wounding. Wound area (2 mm) data were expressed as percentage (%) of wound healing. Animals were terminated on day 14 with wounds harvested and processed for histological evaluation. […] All peptide formulation treatment groups healed faster with greater rate of closure and re-epithelialization over time, as compared to the saline control (Group A).

[2] = test system: swine skin wounds; experiment: Swine dermal wound model, histological evaluation; format: in vivo; settings: day 14 post-wounding
Method: The characteristics that were measured are required to indicate features of a well-healed wound. Inflammation should be low and re-epithelialization high.
as §1
The histology correlated with the clinical observations. […] There were minimal differences in the amount or character of granulation tissue, inflammation, and angiogenesis. All the wounds were well filled and vascularized.

[3] = test system: Pseudomonas clinical isolate B64; experiment: BIOSCREEN C growth assay / MIC, antibiotic in combination with peptide; format: cell-based, P. aeruginosa; settings: for MIC, antibiotic alone: clinical isolate of P. aeruginosa, 1×10^5 CFU/well, 24 hours
Method: The peptide and antibiotics were set up in the wells of the microtiter plate at starting ratios of MIC equivalents of antibiotic:peptide at 3:1, 1:1, and 1:3. They were serially diluted to concentrations well below suboptimal/sublethal levels of the antibiotic and peptide. The organism was added (1×10^5 CFU/well), the BIOSCREEN C™ assay (Growth Systems USA, Piscataway, N.J.) was performed, and data was collected over 24 hours.

[4] = test system: Acinetobacter baumannii ATCC® BAA-747™; format: cell-based
Method: (§2) In vitro bactericidal activity: The three peptide compounds BCC01-5RMP (SEQ ID NO: 21), BCC02-5RMP (SEQ ID NO: 22), and BCC03-5RMP (SEQ ID NO: 23) were assayed for in vitro bactericidal activity against Pseudomonas aeruginosa, Escherichia coli, Salmonella typhimurium, and Acinetobacter baumannii. The starting inoculum for all experiments was 1×10^6 colony forming units (CFU)/ml. The CFU remaining at the end of 60 to 180 minute incubation was determined, and the data plotted as a log reduction in CFU/ml.
(§3) For FIGS. 10-13, in vitro bactericidal assays were performed using a starting inoculum of 1×10^6 CFU/ml of the bacterial suspension. The CFU remaining at the end of the 60-180 minute incubation was determined, and the data was plotted as log reduction in CFU/ml.
(§4) In particular, each of the test peptides (CAP37 peptides 120-146WR, 120-146WH, and 95-122 (SEQ ID NOs: 30, 31, and 26, respectively)) was used at 25, 12.5, 6.25, and 3.12 μM. Gentamicin was used at 4 μg/ml. 1×10^6/ml Acinetobacter baumannii ATCC® BAA-747™ or Pseudomonas aeruginosa ATCC® 27853™ (American Type Culture Collection, Manassas, Va.) were incubated with the peptides, negative buffer control (tryptone saline), and positive control gentamicin at pH 5.5 or 7.2. A 60 minute incubation was used for Acinetobacter baumannii ATCC® BAA-747™, while a 180 minute incubation was used for Pseudomonas aeruginosa ATCC® 27853™. 50 μl aliquots were plated out on agar plates and incubated overnight. Colony forming units were counted after overnight incubation and CFU/ml calculated.

[5] = test system: Pseudomonas aeruginosa ATCC® 27853™; format: cell-based; settings: gentamicin 4 μg/ml; for activity against P. aeruginosa: 120-146WR at 25 μM
Method: as §2, §3, §4
For FIG. 14, 1×10^6/ml Pseudomonas aeruginosa ATCC® 27853™ were incubated with each of the test peptides (CAP37 peptides 120-146WR, 120-146WH, 120-146QR, 120-146QH, 120-146QR-5RMP, and 120-146QH-5RMP (SEQ ID NOs: 30, 31, 28, 29, 32, and 33, respectively)) at 150, 75, and 37.5 μg/ml, or negative buffer control (tryptone saline), for 180 minutes at pH 5.5. 50 μl aliquots were plated out on agar plates and incubated overnight. Colony forming units were counted after overnight incubation and CFU/ml calculated.

[6] = 3 mg/ml, 0.20 ml per wound, reapplied daily

Question: What does the source list for `CC(C)C[C@H](NC(=O)[C@H](CCCNC(=N)N)NC(=O)CNC(=O)CNC(=O)[C@H](CO)NC(=O)[C@H](Cc1c[nH]cn1)NC(=O)[C@H](CCC(N)=O)NC(=O)[C@H](CO)NC(=O)CNC(=O)[C@H](Cc1c[nH]c2ccccc12)NC(=O)CNC(=O)[C@H](C)NC(=O)[C@@H](NC(=O)[C@H](CCC(N)=O)NC(=O)[C@H](CS)NC(=O)[C@H](CCCNC(=N)N)NC(=O)[C@@H](NC(=O)CNC(=O)[C@H](CCCNC(=N)N)NC(=O)[C@H](CCCNC(=N)N)NC(=O)[C@H](CCCNC(=N)N)NC(=O)[C@H](CCCNC(=N)N)NC(=O)COCCOCCNC(=O)COCCOCCN)[C@@H](C)O)C(C)C)C(=O)N[C@@H](CO)C(=O)N[C@@H](CCCNC(=N)N)C(=O)N[C@@H](Cc1ccccc1)C(=O)N1CCC[C@H]1C(=O)N[C@@H](CCCNC(=N)N)C(=O)N[C@@H](Cc1ccccc1)C(=O)N[C@H](C(=O)N[C@@H](CC(N)=O)C(=O)N[C@H](C(=O)N[C@@H](CCCNC(=N)N)C(=O)O)C(C)C)C(C)C` [120-146QH-5RMP] (H-[AEEA][AEEA]RRRRGTRCQVAGWGSQHSGGRLSRFPRFVNVR-OH; N-terminus and C-terminus assumed)?
Answer: Mean Wound Healing (%) Day 0 [1, 6]: 0.0%; Mean Wound Healing (%) Day 3 [1, 6]: 22.5%; Mean Wound Healing (%) Day 5 [1, 6]: 34.1%; Mean Wound Healing (%) Day 7 [1, 6]: 64.1%; Mean Wound Healing (%) Day 10 [1, 6]: 93.7%; Mean Wound Healing (%) Day 14 [1, 6]: 98.0%; dermal wound healing ([1]; topical 3 mg/ml over 14 days, vs saline): accelerate dermal wound healing; epidermal resurfacing and maturation of the epidermis versus saline control [2]: greater extent of epidermal resurfacing and maturation of the epidermis; Histopathology Results, Mean Angiogenesis ([2]; 3 mg/ml): 1.3; Histopathology Results, Mean Epithelization ([2]; 3 mg/ml): 4.0; Histopathology Results, Mean Granulation ([2]; 3 mg/ml): 4.0; Histopathology Results, Mean Inflammation ([2]; 3 mg/ml): 0.5

Question: With `CO/N=C(\C(=O)N[C@@H]1C(=O)N2C(C(=O)O)=C(COC(C)=O)CS[C@H]12)c1csc(N)n1` [Cefotaxime, reference compound] as the molecule, how does the “bactericidal impact of antibiotic alone at sublethal concentration” value ([3]; 2.8 μg/ml of Cefotaxime) read?
Answer: Its value is “very little bactericidal impact”.

Question: What about the “MIC, antibiotic alone” value [3] of the same molecule?
Answer: Its value is 15 µg/mL.

Question: How did the “MIC, antibiotic alone” value [3] turn out when `C[C@H]1COc2c(N3CCN(C)CC3)c(F)cc3c(=O)c(C(=O)O)cn1c23` [Levofloxacin, reference compound] was run?
Answer: The value was 15 µg/mL.

Question: Which “activity against A. baumannii at 12.5 μM” value ([4]; 12.5 μM) does the source give for “GTRCQVAGWGSWRSGGRLSRFPRFVNV [Peptide 120-146WR]” here?
Answer: Its value is “highly active”.

Question: And the “activity against A. baumannii at 25 μM” value ([4]; 25 μM)?
Answer: The value was “highly active”.

Question: What about the “activity against P. aeruginosa” value [5] of the same molecule?
Answer: The value was “highly active”.

Question: And the “effectiveness against Pseudomonas aeruginosa compared with gentamicin, pH 7.2” value ([5]; peptide at 25 VIM (so in the source))?
Answer: Its value is “as effective as the standard antibiotic gentamicin”.

Question: With gentamicin [reference compound] as the molecule, how does the “activity against Acinetobacter baumannii at pH 5.5” value ([4]; gentamicin 4 μg/ml, 60 minutes) read?
Answer: Its value is “unable to kill the bacteria”.

Question: And the “activity against Acinetobacter baumannii at pH 7.2” value ([4]; gentamicin 4 μg/ml, 60 minutes)?
Answer: Its value is “active against the bacteria”.

Question: What about the “activity against P. aeruginosa” value [5] of the same molecule?
Answer: Its value is “highly active”.

Question: And the “log reduction of CFU/ml, Pseudomonas aeruginosa, pH 5.5” value ([5]; 180 minutes, FIG. 13)?
Answer: The value was 2 log.
